Activity calls are given as the source filed them. No cut-off for these calls is given here.
Columns and labels:
SGC-7901 = assay: Cytotoxicity against human SGC-7901 cells assessed as inhibition of cell viability incubated for 24 hrs by CCK8 assay; format: functional, cell-based; details: SGC-7901, 24 h
Histone deacetylase 4 = Histone deacetylase 4 (Homo sapiens, UniProt P56524); assay: Inhibition of HDAC4 (unknown origin) preincubated for 10 mins followed by substrate addition by fluorescence based assay
Histone deacetylase 4, sequence (P56524 whole entry): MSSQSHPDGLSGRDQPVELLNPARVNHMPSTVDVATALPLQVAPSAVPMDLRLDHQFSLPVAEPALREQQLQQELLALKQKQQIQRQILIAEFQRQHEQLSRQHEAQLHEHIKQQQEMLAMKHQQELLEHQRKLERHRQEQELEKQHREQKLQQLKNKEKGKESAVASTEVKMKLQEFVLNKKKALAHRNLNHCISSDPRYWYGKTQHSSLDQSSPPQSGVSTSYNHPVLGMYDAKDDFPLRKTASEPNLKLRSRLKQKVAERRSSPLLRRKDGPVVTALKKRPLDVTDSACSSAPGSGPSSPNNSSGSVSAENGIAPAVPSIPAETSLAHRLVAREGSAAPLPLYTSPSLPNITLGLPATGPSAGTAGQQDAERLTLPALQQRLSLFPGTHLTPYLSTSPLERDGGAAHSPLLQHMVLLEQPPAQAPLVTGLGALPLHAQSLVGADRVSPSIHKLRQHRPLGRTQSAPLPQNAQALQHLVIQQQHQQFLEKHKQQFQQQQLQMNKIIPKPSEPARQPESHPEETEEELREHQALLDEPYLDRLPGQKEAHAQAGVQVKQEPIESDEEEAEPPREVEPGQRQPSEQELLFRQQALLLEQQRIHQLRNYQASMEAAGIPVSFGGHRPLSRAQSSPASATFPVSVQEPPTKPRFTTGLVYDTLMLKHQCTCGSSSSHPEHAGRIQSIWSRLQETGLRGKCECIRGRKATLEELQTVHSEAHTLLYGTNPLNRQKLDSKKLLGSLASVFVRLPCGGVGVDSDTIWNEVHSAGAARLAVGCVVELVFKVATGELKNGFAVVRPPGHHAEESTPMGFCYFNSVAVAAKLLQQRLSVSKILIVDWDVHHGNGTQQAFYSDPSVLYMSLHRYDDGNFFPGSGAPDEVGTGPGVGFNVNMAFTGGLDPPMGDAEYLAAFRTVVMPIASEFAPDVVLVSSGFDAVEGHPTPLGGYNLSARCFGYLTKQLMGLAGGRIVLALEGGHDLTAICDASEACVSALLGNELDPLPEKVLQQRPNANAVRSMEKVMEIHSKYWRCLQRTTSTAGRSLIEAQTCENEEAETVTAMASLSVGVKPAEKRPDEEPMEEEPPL

Histone deacetylase 7 = biological target: T1, Histone deacetylase 7 (Homo sapiens, UniProt Q8WUI4); assay: Inhibition of HDAC7 (unknown origin) preincubated for 10 mins followed by substrate addition by fluorescence based assay
T1 sequence (Q8WUI4 whole entry): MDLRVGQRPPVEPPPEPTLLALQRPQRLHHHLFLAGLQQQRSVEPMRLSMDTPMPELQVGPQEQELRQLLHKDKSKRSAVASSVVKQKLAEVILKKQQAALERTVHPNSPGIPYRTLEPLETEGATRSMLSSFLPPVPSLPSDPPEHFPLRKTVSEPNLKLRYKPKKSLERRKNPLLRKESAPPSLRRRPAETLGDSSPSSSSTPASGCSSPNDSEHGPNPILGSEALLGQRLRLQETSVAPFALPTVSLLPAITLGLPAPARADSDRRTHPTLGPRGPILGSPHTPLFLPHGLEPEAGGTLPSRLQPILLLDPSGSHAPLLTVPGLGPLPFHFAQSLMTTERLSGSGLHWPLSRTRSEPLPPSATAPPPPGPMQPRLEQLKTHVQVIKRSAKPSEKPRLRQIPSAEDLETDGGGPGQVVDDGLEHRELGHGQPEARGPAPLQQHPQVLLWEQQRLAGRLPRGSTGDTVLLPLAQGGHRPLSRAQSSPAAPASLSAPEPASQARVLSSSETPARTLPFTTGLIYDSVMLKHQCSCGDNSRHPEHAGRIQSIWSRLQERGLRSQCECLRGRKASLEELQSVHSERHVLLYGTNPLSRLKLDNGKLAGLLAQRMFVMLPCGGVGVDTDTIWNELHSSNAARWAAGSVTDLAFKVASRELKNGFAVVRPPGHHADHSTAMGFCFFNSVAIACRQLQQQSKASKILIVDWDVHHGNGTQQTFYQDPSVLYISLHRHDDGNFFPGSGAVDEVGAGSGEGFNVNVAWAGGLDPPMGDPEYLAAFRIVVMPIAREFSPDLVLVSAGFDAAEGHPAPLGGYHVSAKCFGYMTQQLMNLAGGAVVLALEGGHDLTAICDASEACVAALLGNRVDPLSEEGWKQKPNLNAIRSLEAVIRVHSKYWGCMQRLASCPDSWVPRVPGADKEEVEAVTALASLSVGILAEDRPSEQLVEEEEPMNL

RPMI-8226 [1] = assay: Upregulation of Ac-alpha-tubulin expression in human RPMI-8226 cells at 0.1 uM incubated for 24 hrs by Western blot analysis; format: functional, cell-based
RPMI-8226 [2] = assay: Upregulation of Ac-H3 expression in human RPMI-8226 cells at 0.1 to 0.5 uM incubated for 24 hrs by Western blot analysis; format: functional, cell-based; details: dose 0.1-0.5 µM
RPMI-8226 [3] = assay: Effect on Ac-H4 expression in human RPMI-8226 cells at 0.1 to 2.5 uM incubated for 24 hrs by Western blot analysis; format: functional, cell-based; details: dose 0.1-2.5 µM
RPMI-8226 [4] = assay: Induction of cell cycle arrest at G1 phase in human RPMI-8226 cells at 0.1 uM incubated for 24 hrs by PI staining based flow cytometry (reference value: 19.2 %); format: functional
RPMI-8226 [5] = assay: Induction of cell cycle arrest at S phase in human RPMI-8226 cells at 0.1 uM incubated for 24 hrs by PI staining based flow cytometry (reference value: 58.5 %); format: functional
RPMI-8226 [6] = assay: Induction of cell cycle arrest at S phase in human RPMI-8226 cells at 0.5 uM incubated for 24 hrs by PI staining based flow cytometry (reference value: 58.5 %); format: functional
RPMI-8226 [7] = assay: Induction of cell cycle arrest at G1 phase in human RPMI-8226 cells at 2.5 uM incubated for 24 hrs by PI staining based flow cytometry (reference value: 19.2 %); format: functional
RPMI-8226 [8] = assay: Induction of apoptosis in human RPMI-8226 cells assessed as viable cells at 0.1 uM incubated for 24 hrs by Annexin V-FITC/PI staining based flow cytometry (reference value: 90.98 %); format: functional; details: read-out: Activity
RPMI-8226 [9] = assay: Induction of apoptosis in human RPMI-8226 cells assessed as necrotic cells at 0.5 uM incubated for 24 hrs by Annexin V-FITC/PI staining based flow cytometry (reference value: 0.90 %); format: functional
RPMI-8226 [10] = assay: Induction of apoptosis in human RPMI-8226 cells assessed as late apoptotic cells at 2.5 uM incubated for 24 hrs by Annexin V-FITC/PI staining based flow cytometry (reference value: 2.78 %); format: functional
RPMI-8226 [11] = assay: Induction of apoptosis in human RPMI-8226 cells assessed as increase in p53 expression at 0.1 to 2.5 uM incubated for 24 hrs by Western blot analysis; format: functional, cell-based; details: dose 0.1-2.5 µM
[12] = AUC (0 to t) in mouse at 1 mg/kg, iv; format: ADME, organism-based; details: in vivo
[13] = Cmax in mouse at 10 mg/kg, po; format: ADME, organism-based; details: in vivo
[14] = AUC (0 to t) in mouse at 10 mg/kg, po; format: ADME, organism-based; details: in vivo
[15] = Oral bioavailability in mouse at 10 mg/kg; format: ADME, organism-based; details: in vivo
RPMI-8226 [16] = assay: Antitumor activity against human RPMI-8226 cells xenografted in Balb/c nude mouse assessed as reduction in tumor volume at 10 to 40 mg/kg, po qd for 21 days administered consecutively; format: functional, organism-based; details: dose 10-40 mg/kg, time 21.0 day
RPMI-8226 [17] = assay: Antitumor activity against human RPMI-8226 cells xenografted in Balb/c nude mouse assessed as ratio of tumor to control at 40 mg/kg, po qd for 21 days administered consecutively relative to control; format: functional; details: time 21 day
[18] = Toxicity in Balb/c nude mouse xenografted with human RPMI-8226 cells assessed as adverse effect on heart at 10 to 40 mg/kg, po qd for 21 days administered consecutively by H and E staining based analysis; format: organism-based; details: in vivo, 504 h, dose 10-40 mg/kg, time 21 day
[19] = Toxicity in Balb/c nude mouse xenografted with human RPMI-8226 cells assessed as adverse effect on spleen at 10 to 40 mg/kg, po qd for 21 days administered consecutively by H and E staining based analysis; format: organism-based; details: in vivo, 504 h, dose 10-40 mg/kg, time 21 day
[20] = Toxicity in Balb/c nude mouse xenografted with human RPMI-8226 cells assessed as adverse effect on lung at 10 to 40 mg/kg, po qd for 21 days administered consecutively by H and E staining based analysis; format: organism-based; details: in vivo, 504 h, dose 10-40 mg/kg, time 21 day
[21] = Toxicity in Balb/c nude mouse xenografted with human RPMI-8226 cells assessed as adverse effect on serum AST level at 10 to 40 mg/kg, po qd for 21 days administered consecutively; format: organism-based; details: in vivo, 504 h, dose 10-40 mg/kg, time 21 day
[22] = Toxicity in Balb/c nude mouse xenografted with human RPMI-8226 cells assessed as adverse effect on serum total protein level at 10 to 40 mg/kg, po qd for 21 days administered consecutively; format: organism-based; details: in vivo, 504 h, dose 10-40 mg/kg, time 21 day
[23] = Toxicity in Balb/c nude mouse xenografted with human RPMI-8226 cells assessed as adverse effect on serum uric acid level at 10 to 40 mg/kg, po qd for 21 days administered consecutively; format: organism-based; details: in vivo, 504 h, dose 10-40 mg/kg, time 21 day

Cn1c([C@@H](Cc2ccccc2)NCc2ccccc2)nc2cc(C(=O)NO)ccc21
IC50 (SGC-7901): > 50 µM | IC50 (Histone deacetylase 4): 1.93 µM | IC50 (Histone deacetylase 7): 1.23 µM | Activity (RPMI-8226 [1]): inactive | Activity (RPMI-8226 [2]): inactive | Activity (RPMI-8226 [3]): inactive | Activity (RPMI-8226 [4]): 18.2% | Activity (RPMI-8226 [5]): 54% | Activity (RPMI-8226 [6]): 43.3% | Activity (RPMI-8226 [7]): 26.8% | viability at 0.1 µM (RPMI-8226 [8]): 82.5% | Activity (RPMI-8226 [9]): 0.53% | Activity (RPMI-8226 [10]): 4.26% | Activity (RPMI-8226 [11]): Active | AUC(0-t) [12]: 202 ng·h/mL | Cmax [13]: 177 ng/mL | AUC(0-t) [14]: 52.1 ng·h/mL | bioavailability [15]: 4.6% | Activity (RPMI-8226 [16]): Active | T/C (RPMI-8226 [17]): 34.8% | Activity [18]: Non-Toxic | Activity [19]: Non-Toxic | Activity [20]: Non-Toxic | Activity [21]: Non-Toxic | Activity [22]: Non-Toxic | Activity [23]: Non-Toxic
